Reference: EP0185130A1, “5-Alkoxy-2,4,6-triodo or tribromo-isophthalic-acid derivatives, process for their preparation and X-ray contrast agents containing them” (BRACCO INDUSTRIA CHIMICA Società per Azioni, priority 1984, dated 1986)
≈ marks a conversion by molar mass, not a printed value. Read-outs that look alike come from different tables or passages of the source. One block for each compound: values may come before it.

Assays:
[1] = Heat sterilisation of aqueous injection solutions (stability); format: physicochemical; details: 120 °C for 30 minutes
From the text: Beispielsweise werden die nach den vorstehenden Beispielen erhaltenen reinen 5-Alkoxy-2,4,6-trijodisopthalsäurediamide unter sterilen Bedingungen in der gewünschten Menge bidestilliertem Wasser gelöst, filtriert, unter Zusatz von geringen Mengen EDTA-Na2 und Puffersubstanzen auf pH 6,9 bis 7,1 eingestellt, in Serumflaschen oder Ampullen abgefüllt und anschliessend sterilisiert.

Water solubility = format: physicochemical; details: for solubility: water, read-out: Wasserlöslichkeit
[2] = result in words, no temperature stated

- sterilisieren durch Erhitzen [1]: ohne Schwierigkeiten
- Wasserlöslichkeit (Water solubility; bei Raumtemperatur): > 100 % (g/v)
Compound: 5-(3,6,9-Triuxadecyl)oxy-2,4,6-trijodisophthalsäure-bis(1,3-dihydroxy- isopropylamid) [Beispiel 2]

- sterilisieren durch Erhitzen [1]: ohne Schwierigkeiten
- solubility (Water solubility; bei Raumtemperatur): > 1000 mg/mL
Compound: O=C(NC(CO)CO)c1c(I)c(OCCOCCOCCO)c(I)c(C(=O)NC(CO)CO)c1I [Beispiel 5]

- sterilisieren durch Erhitzen [1]: ohne Schwierigkeiten
- solubility (Water solubility; bei 20 °C): > 1000 mg/mL
Compound: COCCOCCOCCOCCOCCOCCOCCOc1c(I)c(C(=O)NC(CO)CO)c(I)c(C(=O)NC(CO)CO)c1I [Beispiel 4, 5-(3,6,9,12,15,18,21-Heptaoxadocosyl)oxy-2,4,6-trijodisophthalsäure-bis(1,3-dihydroxyisopropylamid)]

- sterilisieren durch Erhitzen [1]: ohne Schwierigkeiten
- Wasserlöslichkeit (Water solubility; bei 20 °C): > 100 % (g/v)
Compound: 5-(3,6,9-Trioxadecyl)oxy-2,4,6-tribromisophthalsäure-bis(1,3-dihydroxy- isopropylamid) [Beispiel 7]

- solubility (Water solubility; bei 25 °C): 25 mg/mL (≈ 28.4 mM)
- solubility (Water solubility; bei 100 °C): 1000 mg/mL (≈ 1130 mM)
Compound: C[C@@H](Oc1c(I)c(C(=O)NC(CO)CO)c(I)c(C(=O)NC(CO)CO)c1I)C(=O)NC(CO)(CO)CO [Beispiel 16, R(-)-5(1(1,3-Dihydroxy-2-hydroxymethyl-isopropylaminocarbonyl)ethoxy)-2,4,6-trijodisophthalsäure-bis(1,3-dihydroxyisopropylamid)]

- solubility (Water solubility; bei 25 °C): > 600 mg/mL
Compound: CCOCCOCCOc1c(I)c(C(=O)N(C)CC(O)CO)c(I)c(C(=O)N(C)CC(O)CO)c1I (stereo not shown) [Beispiel 40, 5-(3,6-Dioxaoctyl)oxy-2,4,6-trijodisophthalsäure-bis(N-methyl-N-2,3-dihydroxypropylamid)]

- solubility (Water solubility; bei 20 °C): > 1000 mg/mL
Compound: CN(C[C@H](O)[C@H](O)CO)C(=O)COc1c(I)c(C(=O)NC(CO)CO)c(I)c(C(=O)NC(CO)CO)c1I [Beispiel 21, 5-(N-Methyl-N-2,3,4-trihydroxybutyl)aminocarbonylmethoxy-2,4,6-trijod-isophthalsäure-bis(1,3-dihydroxyisopropylamid)]

- sterilisieren durch Erhitzen [1]: ohne Schwierigkeiten
- solubility (Water solubility; bei Raumtemperatur): > 1000 mg/mL
Compound: COCCOCCOCCOCCOCCOc1c(I)c(C(=O)NC(CO)CO)c(I)c(C(=O)NC(CO)CO)c1I [Beispiel 3, 5-(3,6,9,12,15-Pentaoxahexadecyl)oxy-2,4,6-trijod-isophthalsäure-bis-(1,3-dihydroxyisopropylamid)]

- solubility (Water solubility; no temperature stated): > 1000 mg/mL
Compound: C[C@@H](Oc1c(I)c(C(=O)NC(CO)CO)c(I)c(C(=O)NC(CO)CO)c1I)C(=O)N(CCO)CC(O)CO (stereo partly shown) [Beispiel 24, R-5(1((N-2-Hydroxyethyl-N-2,3-dihydroxypropyl)aminocarbonyl)ethoxy)-2,4,6-trijodisophthalsäure-bis(1,3-dihydroxyisopropylamid)]

- solubility (Water solubility; bei 20 °C): > 1000 mg/mL
Compound: CN(C[C@H](O)[C@@H](O)[C@H](O)[C@H](O)CO)C(=O)COc1c(Br)c(C(=O)NC(CO)CO)c(Br)c(C(=O)NC(CO)CO)c1Br [Beispiel 29, 5(N-Methyl-N-2,3,4,5,6-pentahydroxyhexyl)aminocarbonylmethoxy-2,4,6-tribromisophthalsäure-bis(1,3-dihydroxyisopropylamid)]

- solubility (Water solubility; bei 25 °C): > 1000 mg/mL
Compound: CN(CC(O)CO)C(=O)COc1c(I)c(C(=O)NCC(O)CO)c(I)c(C(=O)NCC(O)CO)c1I (stereo not shown) [Beispiel 34, 5-(N-Methyl-N-2,3-dihydroxypropyl)aminocarbonylmethoxy-2,4,6-trijod-isophthalsäure-bis(2,3-dihydroxypropylamid)]

- Wasserlöslichkeit (Water solubility; [2]): sehr gut wasserlösliche
Compound: COC(=O)[C@@H](C)Oc1c(Br)c(C(=O)NC(CO)CO)c(Br)c(C(=O)NC(CO)CO)c1Br [R(+)-5(1(Methoxycarbonyl)ethoxy)-2,4,6-tribromisophthalsäure-bis(1,3-di-hydroxyisopropylamid)]

- Wasserlöslichkeit (Water solubility; [2]): gering
Compound: C[C@@H](Oc1c(I)c(C(=O)NC(CO)CO)c(I)c(C(=O)NC(CO)CO)c1I)C(=O)NC(CO)CO [Beispiel 14, R(-)-5-(1(1,3-Dihydroxyisopropylaminocarbonyl)ethoxy)-2,4,6-trijodiso-phthalsäure-bis(1,3-dihydroxyisopropylamid)]

- solubility (Water solubility; bei 20 °C): > 1000 mg/mL
Compound: O=C(NC(CO)CO)c1c(I)c(OCCCOCCOCCOCCOCCCO)c(I)c(C(=O)NC(CO)CO)c1I [Beispiel 6, 5-(16-Hydroxy-4,7,10,13-tetraoxahexadecyl)oxy-2,4,6-trijod-isophthalsäure-bis(1,3-dihydroxyisopropylamid)]

- Wasserlöslichkeit (Water solubility; bei 20 °C): 5 % (g/v)
- Wasserlöslichkeit (Water solubility; bei 100 °C): 100 % (g/v)
Compound: R(+)-5-(1(1,3-Dihydroxyisopropylaminocarbonyl)ethoxy)-2,4,6-tribromiso- phthalsäure-bis(1,3-dihydroxyisopropylamid) [Beispiel 13]

- solubility (Water solubility; bei 25 °C): ~800 mg/mL (≈ 1010 mM)
Compound: COC(=O)[C@@H](C)Oc1c(I)c(C(=O)NC(CO)CO)c(I)c(C(=O)NC(CO)CO)c1I [R(+)-5(1(Methoxycarbonyl)ethoxy-IPSA]

- Wasserlöslichkeit (Water solubility; [2]): kaum löslich in Wasser
Compound: O=C(COc1c(I)c(C(=O)NC(CO)CO)c(I)c(C(=O)NC(CO)CO)c1I)NCCNC(=O)COc1c(I)c(C(=O)NC(CO)CO)c(I)c(C(=O)NC(CO)CO)c1I [Beispiel 46, 1,2-Bis-(3,5-bis(1,3-dihydroxyisopropylaminocarbonyl)-2,4,6-trijod-phenoxy-acetylamino)-ethan]

- solubility (Water solubility; bei 25 °C): > 1000 mg/mL
Compound: CC(CO)(CO)NC(=O)COc1c(I)c(C(=O)NCC(O)CO)c(I)c(C(=O)NCC(O)CO)c1I (stereo not shown) [Beispiel 33, 5-(1,3-Dihydroxy-2-methylisopropylaminocarbonylmethoxy)-2,4,6-trijod-isophthalsäure-bis(2,3-dihydroxypropylamid)]

- solubility (Water solubility; bei 20 °C): 60 mg/mL (≈ 73 mM)
- solubility (Water solubility; bei Siedetemperatur): 1000 mg/mL (≈ 1220 mM)
Compound: CCOCCOCCOc1c(I)c(C(=O)NC(CO)CO)c(I)c(C(=O)NC(CO)CO)c1I [Beispiel 1, 5-(3,6-Dioxaoctyl)oxy-2,4,6-trijodisophthalsäure-bis(1,3-dihydroxyiso-propylamid)]

- solubility (Water solubility; no temperature stated): > 1000 mg/mL
Compound: O=C(NC(CO)CO)c1c(I)c(OCC(=O)N(CCO)CC(O)CO)c(I)c(C(=O)NC(CO)CO)c1I (stereo not shown) [Beispiel 23, 5-(N-2-Hydroxyethyl-N-2,3-dihydroxypropyl)aminocarbonylmethoxy-2,4,6-trijodisophthalsäure-bis(1,3-dihydroxyisopropylamid)]
